# From patent US9999620B2, “CaMKK-β as a target for treating cancer” (Duke University, priority 2010, dated 2018)
# Key:
# Format in all cases: cell-based, human
# [1] = system: CaMKI phosphorylation (T177) by CaMKKβ; experiment: Western blot of phospho-CaMKI (readout of CaMKKβ activity); settings: for androgen-increased phosphorylation of CaMKI (T177): STO-609 pretreatment
# Description: A, LNCaP cells were pretreated for 1 h with vehicle, 10 or 30 mM STO-609 prior to overnight treatment with vehicle, 100 pM or 10 nM R1881. Cell lysates were then subjected to western blot analysis and subsequent densitometry (right). Phospho-CaMKI (p-CaMKI) levels were normalized to total CaMKI. Results are expressed as fold induction/phosphorylation over double vehicle-treated cells+SE (n=2). *, P<0.05 indicates significant changes from vehicle-treated cells. ^#, P<0.05 indicates significant changes from vehicle (no STO-609)-treated cells.
# A, LNCaP cells were pretreated for 1 h+/−30 mM STO-609 prior to overnight treatment+/−10 nM R1881. Cell lysates were then subjected to western blot analysis and subsequent densitometry (right). CaMKKβ levels were normalized to GAPDH. Phospho-CaMKI (p-CaMKI) levels were normalized to total CaMKI. Phospho-AMPK (p-AMPK) levels were normalized to total AMPK. Results are expressed as fold induction/phosphorylation over double vehicle-treated cells+SE (n=3). *, significant changes from vehicle-treated cells.
# VCaP cells = experiment: Cell proliferation assay (FluoReporter Blue DNA content); settings: +/-1 nM R1881 and +/-30 mM STO-609 on d 3, d 5, d 7, read on d 10
# Excerpt: FIG. 6. CaMKKβ activity in androgen-mediated cell migration in prostate cancer cells. […] Cell lysates were then subjected to western blot analysis and subsequent densitometry (right). Phospho-[…]) levels were normalized to total CaMKI. Results are expressed as fold induction/phosphorylation over double vehicle-treated cells+SE (n=2). *, P<0.05 indicates significant changes from vehicle-treated cells. ^#, P<0.05 indicates significant changes from vehicle (no STO-609)-treated cells. B, VCaP cells were plated in 96-well plates and grown for 3 d. […] On d 10, cells were lysed and the relative number of cells was measured with the fluorescent DNA binding dye FluoReporter Blue. Each sample was performed in triplicate, and results from a representative experiment are shown. […] Cells were then dissociated and reseeded into the top chamber for a Boyden dual chamber migration assay. […] After 16 h, migrated cells were fixed, stained with crystal violet and counted in three different microscopic fields and added together. […] Proliferation assays were performed as previously described (12) by measuring the cellular DNA content using the FluoReporter Blue Fluorometric double-stranded DNA Quantitation Kit (Invitrogen) as per the manufacturer's protocol.
# LNCaP cells = experiment: Boyden dual chamber migration assay; settings: 1 h +/-30 mM STO-609, overnight +/-10 nM R1881, 16 h migration, 5% FBS chemoattractant
# Description: FIG. 7. CaMKKβ activity in the androgen-mediated migration and invasion of prostate cancer cells. A, LNCaP cells were plated in 96-well plates and grown for 3 d. […] On d 10, cells were lysed and the relative number of cells was measured with the fluorescent DNA binding dye FluoReporter Blue. Each sample was performed in triplicate, and results from a representative experiment are shown. […] Cells were then dissociated and reseeded into the top chamber for a Boyden migration or Matrigel extracellular matrix invasion assay. Fresh medium with the corresponding treatments was added to the top and bottom chambers while either no chemoattractant or 5% FBS (serum) was added to the bottom chamber. After 16 h, migrated cells were fixed, stained and counted in three different microscopic fields and added together. […] C top, LNCaP cells were transfected with indicated siRNAs. […] D right, LNCaP cells stably expressing either GAL4 (control) or CaMKKβ were subjected to a migration assay as described in B using +/-5% FBS as chemoattractant. The results are expressed as mean+SE (n=3). *, significant changes from LNCaP-GAL4 cells. D left, western blot confirming CaMKKβ […]expression. FIG. 11. Androgen-mediated migration occurs through a CaMKKβ-AMPK-dependent pathway. […] Results are expressed as fold induction/phosphorylation over double vehicle-treated cells+SE (n=3). *, significant changes from vehicle-treated cells. […] Results are expressed as fold induction/phosphorylation over LNCaP-GAL4 vehicle-treated cells+SE (n=3). *, significant changes from LNCaP-GAL4 vehicle-treated cells. […] The results are expressed as mean±SE (n=2). *, P<0.05 indicates significant changes from double vehicle-treated cells. ^#, P<0.05 indicates significant decreases from vehicle (no compound C)-treated cells. […] ACC is a direct target of AMPK and thus, was used as a readout of AMPK catalytic activity. […] Results are expressed as fold induction/phosphorylation over double vehicle-treated cells+SE (n=2). *, P<0.05 indicates significant changes from double vehicle-treated cells. […]
structure (smiles),measurement,setting,value
O=C(O)c1ccc2c3c1cccc3c(=O)n1c3ccccc3nc21 [STO-609],CaMKKβ activity (phospho-CaMKI levels),"[1]; LNCaP, 1 h pretreatment with 10 or 30 mM STO-609, then overnight 100 pM or 10 nM R1881",suppressed CaMKKβ activity
same,androgen-increased phosphorylation of CaMKI (T177),"[1]; LNCaP, 10 nM R1881",reversed
same,androgen-increased phosphorylation of CaMKI (T177),[1]; VCaP,reversed
same,effect on cell number (androgen-mediated cellular growth),VCaP cells,no significant effect
same,androgen-mediated migration,LNCaP cells,blocked the androgen-mediated migration
